Source: patent US20050245594A1, “Dermal delivery of anti-pain agents and methods useful thereof” (priority 2001, published 2005)
Like-named read-outs stand apart in the source and are kept apart here.

What was measured:
[1] = tested on: Yorkshire Swine skin (injection site); details: pig, in vivo
Protocol: A total of 12 Yorkshire Swine (Archer Farms) were used. Each pig received one injection according to a randomization schedule (RS) once a day for a total of nine injections. Animals were not exposed to all possible injection combinations, because of the incomplete block design.
These skin sites were observed immediately upon removal of the device and at 30 minutes, 1, 2, 3, 4, 6, 8 and 24 hours and skin effects documented using the Draize Dermal Irritation method. […] Responder pigs were assigned to the following pig numbers on the randomization table in the following order: 1, 4, 2, 5, 3, and 6.
Syringe based microneedle systems: 30 gauge 1.5 mm ID needle with skin penetration limiter (Lot #E216801); 2 mm ID needle with limiter incorporating a 30 gauge ½ inch length needle with an ID bevel and a skin penetration limiter to allow 2 mm penetration; 3 mm needle with limiter incorporating a 30 gauge ½ inch length needle with a bevel and a skin penetration limiter to allow 3 mm penetration. All syringe based devices were connected to an accurate leur lock (LL) volumetric syringe for measuring the dose volume, and were administered in a bolus injection fashion using manual control of delivery rate.
During the delivery period, the microneedle array is held in place flat against the skin via an integral adhesive ring incorporated on the hub. The catheter hub is also connected via an integral length of medical grade tubing to a Leur inlet, which is in turn connected to a 1 ml syringe as the drug reservoir. The flow rate and delivery volume from the syringe are controlled via a programmable, highly accurate volumetric syringe pump.
Pigs were fasted for 12-18 hours prior to anesthesia. A mixture of Rompun® (2 mg/kg), Telazol® (4 mg/kg), and Ketamine (2 mg/kg) were given IM to sedate. Atropine (0.02 mg/kg) was given IM directly after sedation to avoid excessive salivation. Swine were masked down with Isoflurane if needed during the injection time.
TREATMENT DAY 1: The hair on both flanks of the pig were clipped and the skin wiped clean with chlorohexaderm scrub and alcohol. A clean, unblemished area was selected. Injection was performed according to a randomization schedule.
For 34-gauge catheter set devices, a BD 1 mL LL syringe and a Harvard syringe pump were used to control flow rate (100 μl/min). Devices remained in place for 1 minute following the injection. For 30-gauge syringe system, injections were performed over 50-60 seconds using manual rate control. After injection, photos were taken of skin effects. The skin site was marked with a permanent skin marker for later identification of site. Pigs were recovered in their runs.
TREATMENT DAY 2-9: All steps from Day 1 were repeated on alternate flanks of each pig following a pre-assigned randomization schedule.
The model included a pig effect, time effect, gauge, depth and solution main effects as well as all two-way interactions.

[2] = Crossover PK study: plasma sumatriptan by LC/MS/MS after ID/junctional vs SC administration (Tmax, Cmax, AUC, relative F); assay type: in vivo, Yucatan miniswine; details: for rel. F 10 min / rel. F Total: compared to SC; for Cmax / AUC: minipig, plasma; for AUC: read-out: AUC 10 mm. (converted)
Protocol: Percent (%) relative Bioavailability (F) for each dosing condition was calculated compared to the SC condition: [formula]

[3] = Yucatan miniswine, 1 × 1.5 mm × 30 g, 0 mg/ml
[4] = Yucatan miniswine, 1 × 2 mm × 30 g, 30 mg/ml
[5] = Yucatan miniswine, 1 × 3 mm × 30 g, 30 mg/ml
[6] = Yucatan miniswine, 3 × 2 mm × 34 g, 30 mg/ml
[7] = Yucatan miniswine, sc, 12 mg/ml
[8] = Yucatan, 3 × 3 mm × 34 g, 12 mg/ml

Structure (SMILES): CNS(=O)(=O)Cc1ccc2[nH]cc(CCN(C)C)c2c1 [sumatriptan, 3-[2-(dimethylamino)ethyl]-N-methyl-indole-5-methanesulfonamide]
- Erythema Mean ([1]; 4 h): 0.1
- Erythema Median ([1]; 4 h): 0.2
- Edema Median ([1]; 6 h): 0
- Edema Median ([1]; 8 h): 0
- Edema Mean ([1]; 24 h): 0.0
- Edema Median ([1]; 24 h): 0
- Erythema Mean ([1]; 24 h): 0.0
- Erythema Median ([1]; 24 h): 0.0
- AUC total ([2]; 1 × 1.5 mm × 30 g, 0 mg/ml): 27696.167 ng·min/mL
- rel. F 10 min ([2]; 1 × 1.5 mm × 30 g, 0 mg/ml): 186.777%
- rel. F Total ([2]; 1 × 1.5 mm × 30 g, 0 mg/ml): 117.806%
- AUC total ([2]; 1 × 2 mm × 30 g, 30 mg/ml): 23548.167 ng·min/mL
- rel. F 10 min ([2]; 1 × 2 mm × 30 g, 30 mg/ml): 165.993%
- rel. F Total ([2]; 1 × 2 mm × 30 g, 30 mg/ml): 100.162%
- AUC total ([2]; 1 × 3 mm × 30 g, 30 mg/ml): 27335.167 ng·min/mL
- rel. F 10 min ([2]; 1 × 3 mm × 30 g, 30 mg/ml): 190.490%
- rel. F Total ([2]; 1 × 3 mm × 30 g, 30 mg/ml): 116.270%
- AUC total ([2]; 3 × 2 mm × 34 g, 30 mg/ml): 30006.000 ng·min/mL
- rel. F 10 min ([2]; 3 × 2 mm × 34 g, 30 mg/ml): 153.272%
- rel. F Total ([2]; 3 × 2 mm × 34 g, 30 mg/ml): 127.631%
- AUC total ([2]; 3 × 3 mm × 34 g, 12 mg/ml): 25642.833 ng·min/mL
- rel. F 10 min ([2]; 3 × 3 mm × 34 g, 12 mg/ml): 116.434%
- rel. F Total ([2]; 3 × 3 mm × 34 g, 12 mg/ml): 109.072%
- AUC total ([2]; 3 × 3 mm × 34 g, 30 mg/ml): 25947.667 ng·min/mL
- rel. F 10 min ([2]; 3 × 3 mm × 34 g, 30 mg/ml): 117.806%
- rel. F Total ([2]; 3 × 3 mm × 34 g, 30 mg/ml): 110.369%
- AUC total ([2]; IV, 12 mg/ml): 16626.000 ng·min/mL
- rel. F 10 min ([2]; IV, 12 mg/ml): 131.820%
- rel. F Total ([2]; IV, 12 mg/ml): 70.719%
- Maximum concentration levels at early time points ([2]; Intradermal and/or junctional administration vs SC): elevated
- AUC total ([2]; SC, 12 mg/ml): 23510.000 ng·min/mL
- rel. F 10 min ([2]; SC, 12 mg/ml): 100.000%
- rel. F Total ([2]; SC, 12 mg/ml): 100.000%
- Cmax [2, 3]: 824 ng/mL
- AUC [2, 3]: 84.7 ng·h/mL
- Cmax [2, 4]: 849 ng/mL
- AUC [2, 4]: 75.2 ng·h/mL
- Cmax [2, 5]: 837 ng/mL
- AUC [2, 5]: 86.4 ng·h/mL
- Cmax [2, 6]: 726 ng/mL
- AUC [2, 6]: 69.5 ng·h/mL
- Cmax ([2]; Yucatan miniswine, 3 × 3 mm × 34 g, 30 mg/ml): 649 ng/mL
- Cmax [2, 7]: 527 ng/mL
- AUC [2, 7]: 45.3 ng·h/mL
- Cmax [2, 8]: 706 ng/mL
- AUC [2, 8]: 52.8 ng·h/mL
- AUC ([2]; Yucatan, 3 × 3 mm × 34 g, 30 mg/ml): 53.4 ng·h/mL
- Cmax ([2]; Yucatan, iv, 12 mg/ml): 661 ng/mL
- AUC ([2]; Yucatan, iv, 12 mg/ml): 59.8 ng·h/mL
